Measured values taken from patent US20230255954A1, “INTERLEUKIN 33 (IL-33) INHIBITION FOR TREATMENT OF CANCER, FIBROSIS AND INFLAMMATION” (The General Hospital Corporation, priority 2020, published 2023).
Each block holds one molecule with its values, some of them ahead of it.

What was measured:
[1] = test system: endogenous Il33 expression in PyMT breast cancer cell line; experiment: Endogenous Il33 RNA in PyMT breast cancer cell line; type: cell-based, mouse
Procedure: (§1) Pam212 cells were grown at 37° C. in DMEM (Thermo Fisher Scientific, Waltham, Mass., catalog no. 11995065) supplemented with 10% fetal bovine serum (Thermo Fisher Scientific, catalog no. 26140079), 1× penicillin-streptomycin-glutamine (Thermo Fisher Scientific, catalog no. 10378016), 1×MEM non-essential amino acids solution (Thermo Fisher Scientific, catalog no. 11140050), 1×HEPES (Thermo Fisher Scientific, catalog no. 15630080) and 0.1% 2-Mercaptoethanol (Thermo Fisher Scientific, catalog no. 21985023). […]
(§2) Mouse dorsal skin samples were homogenized and lysed in RLT lysis solution (QIAGEN, catalog no. 79216)/0.1% MeOH using Mini-BeadBeater-8 (BioSpec Products, Inc., Bartlesville, Okla.). Total RNA was extracted using an RNeasy micro kit and quantified using NanoDrop ND-1100 (NanoDrop Technologies, Wilmington, Del.). cDNA samples were synthesized from 1 μg of total RNA using Invitrogen SuperScripts III Reverse Transcriptase (Thermo Fisher Scientific, catalog no. 18080085). Expression levels of all cDNA samples were determined with LightCycler 480 system (Roche Molecular Systems Inc., Pleasanton, Calif.) using TaqMan Universal Master Mix II (Thermo Fisher Scientific, catalog no. 44-400-40). […]

[2] = test system: mouse Il33 gene promoter (IL-33 promoter-luci reporter); experiment: IL-33 promoter luciferase screen of FDA-approved Drug Library; type: cell-based; settings: 10 μM, 24 hours; IL-33 promoter-luci vs control-luci stable Pam212 cells; 1056 molecules tested
Procedure: Pam212 cells were grown at 37° C. in DMEM (Thermo Fisher Scientific, Waltham, Mass., catalog no. 11995065) supplemented with 10% fetal bovine serum (Thermo Fisher Scientific, catalog no. 26140079), 1× penicillin-streptomycin-glutamine (Thermo Fisher Scientific, catalog no. 10378016), 1×MEM non-essential amino acids solution (Thermo Fisher Scientific, catalog no. 11140050), 1×HEPES (Thermo Fisher Scientific, catalog no. 15630080) and 0.1% 2-Mercaptoethanol (Thermo Fisher Scientific, catalog no. 21985023). PyMT cell lines (derived from a primary breast tumor of MMTV-PyMrg mouse on a C57BL/6 background) were grown at 37° C. in RPMI Medium 1640 (Thermo Fisher Scientific, catalog no. 11875093) supplemented with 10% fetal bovine serum, 1× penicillin-streptomycin-glutamine and 0.1% 2-Mercaptoethanol. IL-33 promoter-luci vector (GeneCopoeia, Rockville, Md., catalog no. MPRM3494-PG02) or Control-luci vector (deletion form of IL-33 promoter region from IL-33 promoter-luci vector) or Poly (I:C) (Invivogen, San Diego, Calif., catalog no. tlrl-pic) in Pam212 cells were performed using Lipofectamine 2000 (Thermo Fisher Scientific, catalog no. 11668019) according to the manufacturer's instructions.
After transfection of plasmids in Pam212 cells, cells were incubated with 3 μg/ml of puromycin (Invivogen, San Diego, Calif., catalog no. ant-pr-1) for positive transfected cell selection. After following 2 days, medium was changed new puromycin contained medium for further selection. After following 2 days, cells were moved to new plate with puromycin contained medium. Puromycin selection was repeated for five times more.
1000 stable cells were seed to 384 wells (Corning, Glendale, Ariz., catalog no. 3570) and each of plate was incubated 24 hours. Following day, 10 μM of FDA-approved Drug Library compounds (Selleckchem, Houston, Tex., catalog no. L1300) were added to each well. After 24 hours, 5 μL of luciferase buffer from Pierce Gaussia luciferase glow assay kit (Thermo Fisher Scientific, Waltham, Mass., catalog no. 16160) were added each well and incubated for 5 min. Each plate was read and measured with luminescence by EnVision 2014 plate reader (Perkin Elmer, Waltham, Mass., catalog no. 2014 EnVision).
To make small molecule screening platform, we generated both IL-33 promoter-luci and control-luci over-expressed stable epithelial cell line (Pam212) by multiple puromycin selection strategy (FIG. 10A). To find molecules that can inhibit IL-33 expression, we tested 1056 FDA-approved small molecules against our reporter cell line. […] To find bona fide inhibitors of IL-33, we checked RNA level of Il33 by qPCR in cells treated with inducer of IL-33 expression, Poly (I:C). After cells were treated by Poly (I:C), RNA level of Il33 was increased compared to carrier group. However, Il33 RNA level was decreased by pitavastatin and tropisetron in Poly I:C-treated cells (FIGS. 10C and D). […] Finally, endogenous IL-33 protein level was decreased after treatment with pitavastatin in a dose-dependent manner (FIG. 10F). Therefore, pitavastatin is a small inhibitor molecule of IL-33.

[3] = test system: Il33 expression induced by Poly (I:C) in Pam212 cells; experiment: Il33 RNA by qPCR in Poly (I:C)-treated Pam212 cells; type: cell-based, mouse
Procedure: as §1, §2

[4] = molecular target: T1, RUNX2 transcription factor (mouse, UniProt Q08775 1-607, limits assumed); experiment: immunoprecipitation with anti-IL-33 antibody from transfected Pam212 lysate, immunoblot for RUNX2
T1 construct: Detected by immunoblot (anti-RUNX2 clone D1L7F) after immunoprecipitation of IL-33; The species follows from the mouse cell lines; also called endogenous RUNX2
T1 sequence (Q08775 whole entry): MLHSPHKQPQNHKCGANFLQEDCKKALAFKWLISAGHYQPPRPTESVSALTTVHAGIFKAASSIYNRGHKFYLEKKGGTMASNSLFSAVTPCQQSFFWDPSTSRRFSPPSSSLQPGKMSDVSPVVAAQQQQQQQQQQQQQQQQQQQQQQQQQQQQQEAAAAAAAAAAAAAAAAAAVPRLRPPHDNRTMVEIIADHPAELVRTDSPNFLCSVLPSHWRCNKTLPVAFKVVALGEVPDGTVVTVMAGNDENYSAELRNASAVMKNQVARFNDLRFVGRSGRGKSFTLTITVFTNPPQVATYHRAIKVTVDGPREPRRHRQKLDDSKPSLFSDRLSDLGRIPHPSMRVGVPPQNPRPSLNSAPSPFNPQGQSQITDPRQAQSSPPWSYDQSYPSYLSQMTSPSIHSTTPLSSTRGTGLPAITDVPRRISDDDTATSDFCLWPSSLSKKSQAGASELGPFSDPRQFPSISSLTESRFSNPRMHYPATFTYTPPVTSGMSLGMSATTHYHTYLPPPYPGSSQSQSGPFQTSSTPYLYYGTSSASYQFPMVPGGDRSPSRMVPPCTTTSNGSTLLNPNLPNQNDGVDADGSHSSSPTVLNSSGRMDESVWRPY
Procedure: (G) Immunoblot for interaction between nuclear IL-33 and RUNX2. After Pam212 cells were transfected with IL-33 full length or cytokine domain for 24 hours, cell lysates were subjected to immunoprecipitation with anti-IL-33 antibody followed by immunoblot analysis.
Cell lysates were prepared in buffer-A consisting of 50 mM Tris-HCL (pH 8.0), 150 mM NaCl, 0.5% NP-40 and 1× protease inhibitor cocktail. After confirming the concentration of total proteins, the cell lysates were incubated with IL-33 (Nessy-1) overnight at 4° C. and incubated with 30 μL of 50% slurry of protein A-conjugated Sepharose (Cell Signaling Technology, Danvers, Mass., catalog no. 9863S) for the next 2 hours. The samples were precipitated, washed three times with buffer-A containing 300 mM NaCl. Samples were added to 25 μL SDS sampling buffer (Boston Bioproducts, catalog no. BP-111R) and boiled at 95° C. for 10 min. Samples were subjected to SDS-polyacrylamide gel electrophoresis followed by immunoblot analysis.

Molecule: CC1(C)[C@@H](O[C@H]2O[C@H](C(=O)O)[C@@H](O)[C@H](O)[C@H]2O[C@@H]2O[C@H](C(=O)O)[C@@H](O)[C@H](O)[C@H]2O)CC[C@]2(C)[C@H]3C(=O)C=C4[C@@H]5C[C@@](C)(C(=O)O)CC[C@]5(C)CC[C@@]4(C)[C@]3(C)CC[C@@H]12 [ammonium glycyrrhizinate]
IL-33/Control luminescence ratio (inhibitory effect against IL-33 reporter) [2]: small molecule candidates

Molecule: CCCCCCCCCCCCCCCC[N+](C)(C)C [cetrimonium bromide]
IL-33/Control luminescence ratio (inhibitory effect against IL-33 reporter) [2]: small molecule candidates

B1: HA-IL-33 cytokine domain (other, mouse, UniProt Q8BVZ5 109-266, looked up)
chain: SIQGTSLLTQSPASLSTYNDQSVSFVLENGCYVINVDDSGKDQEQDQVLLRYYESPCPASQSGDGVDGKKLMVNMSPIKDTDIWLHANDKDYSVELQRGDVSPPEQAFFVLHKKSSDFVSFECKNLPGTYIGVKDNQLALVEEKDESCNNIMFKLSKI
notes: domain: cytokine domain; Overexpressed in Pam212 cells for 24 hours; localized to the cytoplasm; not shown: HA tag from the pcDNA3.1-HA vector
binding result [4]: no binding

Further lines, with some results ahead:

IL-33/Control luminescence ratio (inhibitory effect against IL-33 reporter) [2]: small molecule candidates
Molecule: CN1[C@@H]2CC[C@H]1C[C@@H](OC(=O)c1c[nH]c3ccccc13)C2 [tropisetron]
endogenous Il33 RNA level [1]: inhibitory effect | Il33 RNA level [3]: decreased

IL-33/Control luminescence ratio (inhibitory effect against IL-33 reporter) [2]: small molecule candidates
Molecule: CCCSc1nc(N[C@@H]2C[C@H]2c2ccc(F)c(F)c2)c2nnn([C@@H]3C[C@H](OCCO)[C@@H](O)[C@H]3O)c2n1 [ticagrelor]
